# Measurements: the Deep4Chem optical property database
# Experiment: solvent given as SMILES
smiles,measurement,setting,value
O=C(c1ccc(N(c2ccccc2)c2ccccc2)cc1)[C@H]1[C@H](c2ccc(F)cc2)C[C@](O)(c2ccccn2)C[C@]1(O)c1ccccn1,emission maximum,in C1CCOC1,502 nm
same,emission maximum,in CC#N,523 nm
same,emission maximum,in CCO,515 nm
same,emission maximum,in CCOC(C)=O,502 nm
same,emission maximum,in CN(C)C=O,524 nm
same,emission maximum,in ClCCl,518 nm
same,emission maximum,in c1ccccc1,485 nm
CC(=O)OCOC(=O)CN(CC(=O)OCOC(C)=O)c1ccccc1OCCOc1cc(NC(=O)c2ccc3c(c2)C(=O)OC32c3cc(Cl)c(OC(C)=O)cc3Oc3cc(OC(C)=O)c(Cl)cc32)ccc1N(CC(=O)OCOC(C)=O)CC(=O)OCOC(C)=O,emission maximum,in O,534 nm
c1ccc(-n2c3ccccc3c3cc([Si](c4ccccc4)(c4ccccc4)c4ccc5c(c4)c4ccccc4n5-c4ccccc4)ccc32)cc1,emission maximum,in ClCCl,350 nm
CN(C)c1ccc(/C=C/C=C/c2nc3ccccc3s2)cc1,emission maximum,in C1COCCO1,516 nm
same,emission maximum,in CC#N,562 nm
same,emission maximum,in CC(C)=O,557 nm
same,emission maximum,in CCCCCC,478 nm
same,emission maximum,in CCCCO,531 nm
same,emission maximum,in CCCO,533 nm
same,emission maximum,in CCO,560 nm
same,emission maximum,in CN(C)C=O,567 nm
same,emission maximum,in CO,573 nm
same,emission maximum,in Cc1ccccc1,500 nm
same,emission maximum,in ClC(Cl)(Cl)Cl,499 nm
same,emission maximum,in ClC(Cl)Cl,526 nm
same,emission maximum,in ClCCl,533 nm
same,emission maximum,in OCC(O)CO,583 nm
same,emission maximum,in OCCO,583 nm
same,emission maximum,in c1ccccc1,504 nm
C(#Cc1c(C#Cc2cccs2)c(C#Cc2cccs2)c(C#Cc2cccs2)c(C#Cc2cccs2)c1C#Cc1cccs1)c1cccs1,emission maximum,in ClCCl,453 nm
COC(=O)C1=C(C(=O)OC)C2(c3cc([N+](=O)[O-])ccc3-c3ccc([N+](=O)[O-])cc32)C2(/C=C/c3ccccc3)c3cc(OC)c(OC)cc3CCN12 (stereo unspecified),emission maximum,in ClCCl,495 nm
Cn1ccc(-n2cncn2)nc1=O,emission maximum,in O,366 nm
COc1ccc(-c2nc(-c3ccccc3)c(N(C)C)[se]2)cc1,emission maximum,in ClC(Cl)Cl,438 nm
c1ccc(N(c2ccccc2)c2ccc(-c3nc4c5ccccc5c5ccccc5c4n3-c3ccccc3)cc2)cc1,emission maximum,in ClCCl,468 nm
Cc1nc(-c2cc(N)ccc2O)n2c1CCCC2,emission maximum,in ClCCl,543 nm
C/C=C/C1=NC(=C\c2ccc(O)cc2)/C(=O)N1C,emission maximum,in ClC(Cl)Cl,472 nm
same,emission maximum,in O,460 nm
CC(C)(C)C#Cc1ccc2c3cccc4cccc(c5cccc1c52)c43,emission maximum,in C1CCCCC1,459.88 nm
CC1=C(c2ccc(N(C)C)cc2)C(C)=[N+]2C1=C(c1c(-c3ccccn3)nc3ccccn13)c1c(C)cc(C)n1[B-]2(F)F,emission maximum,in ClCCl,524 nm
COc1ccc(N(c2ccc(OC)cc2)c2ccc3ccc4c(B(c5c(C)cc(C)cc5C)c5c(C)cc(C)cc5C)ccc5ccc2c3c54)cc1,emission maximum,in C1CCOC1,626 nm
same,emission maximum,in CC(C)=O,658 nm
same,emission maximum,in CCCCCC,534 nm
same,emission maximum,in Cc1ccccc1,575 nm
same,emission maximum,in ClC(Cl)Cl,601 nm
same,emission maximum,in ClCCl,633 nm
O=C1c2ccccc2C(=O)N1c1ccc(Cn2cncn2)cc1,emission maximum,in C1CCOC1,361 nm
same,emission maximum,in C1COCCO1,313 nm
same,emission maximum,in CC#N,471 nm
same,emission maximum,in CC(C)=O,407 nm
same,emission maximum,in CC(C)O,427 nm
same,emission maximum,in CCCCCC,310 nm
same,emission maximum,in CCCCO,402 nm
same,emission maximum,in CCO,422 nm
same,emission maximum,in CCOC(C)=O,355 nm
same,emission maximum,in CCOCC,339 nm
same,emission maximum,in CN(C)C=O,503 nm
same,emission maximum,in CO,440 nm
same,emission maximum,in CS(C)=O,563 nm
same,emission maximum,in Cc1ccccc1,323 nm
same,emission maximum,in ClCCl,367 nm
COc1ccc2cc(C#CC3=C4CCc5ccccc5C4=[O+][B-](F)(F)O3)ccc2c1,emission maximum,in ClCCl,566 nm
c1ccc2c(c1)ccc1ccc3ccc4ccccc4c3c12,emission maximum,in ClC(Cl)Cl,424 nm
N#CC1=C(N)n2c(=O)c3ccccc3c(=O)n2C1c1cccs1 (stereo unspecified),emission maximum,in CS(C)=O,446 nm
CC(C)(C)OC(=O)NCCCC(=O)OCc1ccc2c3cccc4cccc(c5cccc1c52)c43,emission maximum,in CCO,446 nm
COC(=O)C(NC(=O)OC(C)(C)C)c1ccc2oc(-c3ccc(C#N)cc3)nc2c1 (stereo unspecified),emission maximum,in CC1CCCCC1,342 nm
same,emission maximum,in CC#N,384 nm
same,emission maximum,in CO,385 nm
CCN(CC)c1ccc2cc(-c3nc4cc(C(=O)Nc5cccc(C)c5)ccc4o3)c(=O)oc2c1,emission maximum,in ClCCl,495 nm
Cc1ccc(-c2nc(-c3ccccc3O)[nH]c2-c2ccc(C)cc2)cc1,emission maximum,in CO,430 nm
CCCCN1C(=O)C2=C(c3ccc(Br)cc3)[N-]C(=O)C2=C1c1ccc(Br)cc1,emission maximum,in ClCCl,613 nm
O=P1(c2ccccc2)C(c2ccc(N(c3ccccc3)c3ccccc3)cc2)=Cc2ccccc21 (stereo unspecified),emission maximum,in C1CCOC1,521 nm
same,emission maximum,in CC#N,577 nm
same,emission maximum,in CN(C)C=O,566 nm
same,emission maximum,in Cc1ccccc1,490 nm
same,emission maximum,in ClC(Cl)Cl,529 nm
same,emission maximum,in ClCCl,544 nm
CC1(C)c2ccccc2-c2ccc(N(c3ccccc3)c3ccc4c(c3)C(C)(C)c3cc(-c5cc6ccccc6c6c5oc5ccccc56)ccc3-4)cc21,emission maximum,in C1CCOC1,469 nm
c1ccc(-c2nc(-c3ccccn3)[se]c2N(c2ccccc2)c2ccccc2)cc1,emission maximum,in ClC(Cl)Cl,498 nm
COc1ccc2cc(/C=C/C3=CC(c4ccccc4)=[O+][B-](F)(F)O3)ccc2c1,emission maximum,in ClCCl,566 nm
COC(=O)c1cc2c(cc3ccc4cccc5ccc2c3c45)[nH]1,emission maximum,in C1CCOC1,404 nm
Oc1ccccc1/N=C/c1ccccc1Oc1ccccc1,emission maximum,in C1CCCCC1,413 nm
same,emission maximum,in C1CCOC1,412 nm
same,emission maximum,in C1COCCO1,410 nm
same,emission maximum,in CC#N,410 nm
same,emission maximum,in CC(C)=O,410 nm
same,emission maximum,in CC(C)CO,409 nm
same,emission maximum,in CC(C)O,406 nm
same,emission maximum,in CCCCC,425 nm
same,emission maximum,in CCCCCCCCO,414 nm
same,emission maximum,in CCCCCCCO,410 nm
same,emission maximum,in CCCCCCO,410 nm
same,emission maximum,in CCCCO,395 nm
same,emission maximum,in CCCCOC(C)=O,409 nm
same,emission maximum,in CCCO,410 nm
same,emission maximum,in CCO,408 nm
same,emission maximum,in CCOC(C)=O,400 nm
same,emission maximum,in CCOCC,420 nm
same,emission maximum,in CN(C)C=O,418 nm
same,emission maximum,in CO,414 nm
same,emission maximum,in CS(C)=O,410 nm
same,emission maximum,in Cc1ccccc1,411 nm
same,emission maximum,in Cc1ccccc1C,412 nm
same,emission maximum,in ClC(Cl)Cl,410 nm
same,emission maximum,in ClCCl,415 nm
same,emission maximum,in N#Cc1ccccc1,410 nm
same,emission maximum,in OCCO,415 nm
same,emission maximum,in c1ccccc1,410 nm
CC(C)(C)c1ccc(-c2nnc(-c3c(-n4c5ccccc5c5ccccc54)c(-n4c5ccccc5c5ccccc54)c(-n4c5ccccc5c5ccccc54)c(-n4c5ccccc5c5ccccc54)c3-n3c4ccccc4c4ccccc43)o2)cc1,emission maximum,in Cc1ccccc1,482 nm
c1cc2c3c(cccc3c1)NC(c1ccc3ccc4cccc5ccc1c3c45)N2,emission maximum,in CC#N,458 nm
same,emission maximum,in CO,450 nm
same,emission maximum,in CS(C)=O,420 nm
same,emission maximum,in Cc1ccccc1,502 nm
N#Cc1cc(-c2ccc(/C=C/c3ccc(N(c4ccccc4)c4ccccc4)cc3)c(C#N)c2)ccc1/C=C/c1ccc(N(c2ccccc2)c2ccccc2)cc1,emission maximum,in ClCCl,541 nm
COc1ccc2c(c1)C(C)(C)c1c-2c2ccc(OC)cc2c2cc(OC)ccc12,emission maximum,in C1CCCCC1,398 nm
O=C1c2ccccc2-c2c(-c3cc(Br)ccc3O)[nH]c(=O)n21,emission maximum,in CC#N,475 nm
same,emission maximum,in CO,492 nm
same,emission maximum,in ClCCl,474 nm
CCn1c2ccccc2c2cc(-c3cc(-c4ccc5c(c4)c4ccccc4n5CC)nc(-c4ccc(C#N)cc4)n3)ccc21,emission maximum,in C1CCOC1,408 nm
same,emission maximum,in CCOC(C)=O,408 nm
same,emission maximum,in CN(C)C=O,422 nm
same,emission maximum,in Cc1ccccc1,388 nm
same,emission maximum,in ClCCl,417 nm
CCC1(CC)c2cc(B(c3c(C)cc(C)cc3C)c3c(C)cc(C)cc3C)ccc2-c2ccc(N(c3ccccc3)c3ccccc3)cc21,emission maximum,in C1CCOC1,482 nm
same,emission maximum,in CC#N,531 nm
same,emission maximum,in CC(C)=O,499 nm
same,emission maximum,in CCCCCC,423 nm
same,emission maximum,in CN(C)C=O,532 nm
same,emission maximum,in Cc1ccccc1,448 nm
same,emission maximum,in ClC(Cl)Cl,461 nm
C(#Cc1nc2ccccc2s1)c1ccc(N(c2ccccc2)c2ccccc2)cc1,emission maximum,in Cc1ccccc1,437 nm
FC(F)(F)c1ccc(-c2nnc(-c3cc(-n4c5ccccc5c5ccccc54)c(-n4c5ccccc5c5ccccc54)cc3-c3nnc(-c4ccc(C(F)(F)F)cc4)o3)o2)cc1,emission maximum,in CC#N,544.97 nm
same,emission maximum,in Cc1ccccc1,487 nm
same,emission maximum,in ClCCl,519.92 nm
CCN(CC)c1ccc(-c2nc3c(nc2-c2ccc([B-](F)(c4c(C)cc(C)cc4C)c4c(C)cc(C)cc4C)cc2)c2ccccc2n3C)cc1,emission maximum,in C1CCOC1,497.22 nm
CC(=O)Nc1cccc2c1C#Cc1c(cccc1C(=O)N(C)C)OCCCO2,emission maximum,in CC#N,394 nm
same,emission maximum,in ClCCl,390 nm
Oc1ccc2ccccc2c1/C=N/c1cc2ccccc2cc1/N=C/c1c(O)ccc2ccccc12,emission maximum,in CC#N,509 nm
CC(C)(C)[Si](C)(C)C#Cc1c2c(=O)c3ccccc3c2c(C#C[Si](C)(C)C(C)(C)C)c2c(=O)c3ccccc3c12,emission maximum,in ClC(Cl)Cl,571 nm
COC(=O)C1=C(C(=O)OC)C2(c3ccccc3-c3c(C(=O)OC)cccc32)[C@@H](c2ccc(Cl)cc2)C=C2c3cc(OC)c(OC)cc3CCN21 (stereo partly specified),emission maximum,in ClCCl,439 nm
Cc1ccc(C2=C3C=C(I)C(I)=[N+]3[B-](F)(F)n3c2cc(I)c3I)cc1,emission maximum,in C1CCCCC1,593 nm
same,emission maximum,in CC#N,591 nm
same,emission maximum,in CCO,595 nm
same,emission maximum,in CCOC(C)=O,591.5 nm
same,emission maximum,in CO,593.5 nm
same,emission maximum,in OCC(F)(F)F,588 nm
CC1=[N+]2C(=c3c4c5ccccc5cc5cccc(c6cc(C)n(c36)[B-]2(F)F)c54)C=C1,emission maximum,in C1CCOC1,637 nm
same,emission maximum,in CCCCCC,637 nm
same,emission maximum,in CO,637 nm
same,emission maximum,in CS(C)=O,639 nm
same,emission maximum,in ClC(Cl)Cl,637 nm
same,emission maximum,in ClCCl,638 nm
O=S1c2ccc(-c3c4ccccc4cc4ccccc34)cc2-c2cc(-c3c4ccccc4cc4ccccc34)ccc21,emission maximum,in C1CCCCC1,405.03 nm
same,emission maximum,in CC#N,508.48 nm
same,emission maximum,in ClCCl,471.15 nm
COc1cc(-c2cnc(-c3cnc4ccccc4c3)o2)cc(OC)c1OC,emission maximum,in ClCCl,458 nm
